Results on four compounds are retold here after patent publication US5149711A, “2-cyclopentenone derivatives” (Teijin Limited, priority 1988, dated 1992).

One test concerns L1210 leukemia cells. As to the kind of experiment: Measurement of the action of inhibiting proliferation of L1210 leukemia cell. Type of test: cell-based. Conditions: Mus musculus, L1210, 96 h; RPMI medium with 10% FCS, 37° C., 4 days, trypan blue count of surviving cells. The protocol: (1) Measurement of the action of inhibiting Proliferation of L1210 leukemia cell
L1210 leukemia cells were added to an RPMI medium containing 10% FCS (fetal calf serum), and the concentration of the cells was adjusted to […]. Each of the test compounds shown in Table I was dissolved in 99.5% ethanol. Prior to use, the final concentration of the ethanol solution was adjusted to less than 0.1%, and it was added to the culture medium. The culture medium was then maintained at 37° C. in a stationary condition for 4 days. After the cultivation, the number of surviving cells was measured by dyeing with trypan blue. As a control, 0.1% ethanol was used. A dose-reaction curve plotted from the ratios of proliferation against the control, and IC50 was determined.

Test [1] relates to P388 mouse leukemia cells. As to the kind of experiment: Measurement of the antitumor effect on P388 mouse leukemia tumor (increase of life span). It is filed as in vivo. Conditions: intraperitoneal, 9 days, BDF1 mice. The protocol:
(2) Measurement of the antitumor effect on P338 mouse leukemia tumor
1×10^6 P388 mouse leukemia cells were intraperitoneally administered to BDF1 mice. After the lapse of 24 hours, each of the test compounds shown in Table II was intraperitoneally administered to the mice for 9 days. The periods of survival of these animals were examined and the increase of their life span (ILS %) was determined.

Another test relates to B16 melanoma. Kind of test: Measurement of the antitumor effect on B16 melanoma mouse tumor (tumor weight). It is filed as in vivo. Conditions: intraperitoneal, day 1-9, tumor weight on day 18, BDF1 mice. The protocol: (3) Measurement of the antitumor effect on B16 melanoma mouise tumor
For B16 melanoma, BDF1 mice were implanted subcutaneously with 0.2 ml of a 10% tumor homogenate in saline in the left flank. The test compounds were each given intraperitoneally on day 1-9. The activity was assessed by measuring the tumor weight on day 18.

Values after ≈ are worked out from the molar mass of the structure shown.

What is called IC50 is the concentration at which inhibition is half-maximal. The low end stands for greater potency, the high end for weaker potency. `CC(=O)OC[C@@H](OC(C)=O)[C@H](/C=C/C=C1C(=O)C=CC1(O)CCCCOc1ccccc1)OC(C)=O` (stereo partly drawn) [5-[(4S,5R)-4,5,6-triacetoxy-2-hexenylidene]-4-(4-phenoxybutyl)-4-hydroxy-2-cyclopentenone] yielded an IC50 with L1210 leukemia cells of 0.1 mg/L (≈ 0.2 µM).
In the test on L1210 leukemia cells, `O=C1C=CC(O)(CCCCOc2ccccc2)C1=C/C=C/[C@H](O)[C@H](O)CO` (stereo partly drawn) [5-[(4S,5R)-4,5,6-trihydroxy-2-hexenylidene]-4-(4-phenoxybutyl)-4-hydroxy-2-cyclopentenone] registered a half-maximal inhibitory concentration (IC50) of 0.8 mg/L (≈ 2.14 µM). The results for the “increase of life span (ILS)” value in test [1] (5 mg/kg/day), in test [1] (10 mg/kg/day) and in test [1] (20 mg/kg/day) were 24.5%, 32.7% and 44.9%, respectively.
`CC(=O)OC[C@@H](O)[C@H](/C=C/C=C1C(=O)C=CC1(O)CCCCOc1ccccc1)OC(C)=O` (stereo partly drawn) [5-[(4S,5R)-4,6-diacetoxy-5-hydroxy-2-hexenylidene]-4-(4-phenoxybutyl)-4-hydroxy-2-cyclopentenone]: the half-maximal inhibitory concentration (IC50) with L1210 leukemia cells came to 0.2 mg/L (≈ 0.436 µM). The results for the Proliferation inhibitory rate with B16 melanoma (5 mg/kg/day) and in the test with B16 melanoma (10 mg/kg/day) were 9.6% and 45.5%, respectively.
Consider `O=C1C=CC(O)(CCCCOc2ccccc2)/C1=C\C=C\C(O)CCCO` (stereo not shown) [5-[(E)-4,7-dihydroxy-(2E)-heptenylidene]-4-(4-phenoxybutyl)-4-hydroxy-2-cyclopentenone, reference compound], for which the Proliferation inhibitory rate in the test on B16 melanoma (5 mg/kg/day) is given as -13.5%; in the test on B16 melanoma (10 mg/kg/day), 32.7%. The figures for the “increase of life span (ILS)” value in test [1] (5 mg/kg/day), in test [1] (10 mg/kg/day) and in test [1] (20 mg/kg/day) were 21.4%, 31.2% and -69.2%, respectively.
